Data on three compounds can be found in patent US7892574B2, “Topical administration of oxazolidinones for transdermal delivery” (Pharmacia & Upjohn Company, LLC, priority 1998, dated 2011).

Type in all cases: in vivo
For one test, the system named is acne. As to the kind of experiment: Human who has acne treated with an Oxazolidinone ointment. Particulars: person, ointment containing 30 mg/ml, topical, twice daily. As to the method:
A Human Who has Acne is Treated with an Oxazolidinone Ointment

Another test deals with otitis media. As to the kind of experiment: Human who has an ear infection treated with Oxazolidinone solution. Particulars: child, ten drops of solution containing 10 mg/ml into the ear twice daily for ten days; before 10 days. As to the method:
A Human Who has an Ear Infection is Treated with Oxazolidinone Solution
Ten drops of a solution containing 10 mg/ml of (S)-N-[[3-[3-fluoro-4-(4-morpholinyl)phenyl]-2-oxo-5-oxazolidinyl]methyl]acetamide is dropped into the ear twice daily for ten days with an eye dropper and is immediately followed by closing the outer ear canal with cotton.

The subject of a further test is wound infection. As to the kind of experiment: Human with wound infection treated with Oxazolidinone gel. Particulars: person, punctured finger, gel containing 1%, twice daily for 10 days. As to the method:
Human with Wound Infection is Treated with Oxazolidinone Gel
A 65 kg person who has a severely swollen and painful finger with a history of having punctured the finger on a rose thorn two days previously is treated by administering a gel containing 1% N-((5S)-3-(3-fluoro-4-(4-(2-fluoroethyl)-3-oxopiperazin-1-yl)phenyl)-2-oxooxazolidin-5-ylmethyl)acetamide twice daily for 10 days. The site of inflammation is kept lightly covered with a sterile bandage following antibiotic therapy.

On to `CC(=O)NC[C@H]1CN(c2ccc(N3CCN(C(=O)CO)CC3)c(F)c2)C(=O)O1` [Example 1, (S)-N-[[3-[3-Fluoro-4-[4-(hydroxyacetyl)-1-piperazinyl]-phenyl]-2-oxo-5-oxazolidinyl]methyl]acetamide], for which the “reddened and swollen pustules after administration” value in the test on acne is “greatly reduced”.
As for `CC(=O)NC[C@H]1CN(c2ccc(N3CCOCC3)c(F)c2)C(=O)O1` [Example 2, (S)-N-[[3-[3-Fluoro-4-(4-morpholinyl)phenyl]-2-oxo-5-oxazolidinyl]methyl]acetamide], in the test on otitis media, the fever result was “the fever is down” and the pain entry is given as “the pain is gone”.
For the compound `CC(=O)NC[C@H]1CN(c2ccc(N3CCN(CCF)C(=O)C3)c(F)c2)C(=O)O1` [Example 4, N-((5S)-3-(3-Fluoro-4-(4-(2-fluoroethyl)-3-oxopiperazin-1-yl)phenyl)-2-oxooxazolidin-5-ylmethyl)acetamide], the wound healing entry with wound infection is “The wound heals”.
